Here are results for 15 compounds from ChEMBL document CHEMBL5050861 (2021).

By IC50 is commonly meant the concentration that gives 50% inhibition. One may read the half-life as the time in which the quantity being followed falls by half.

The nature of data set [1]: Inhibition of recombinant mouse GALK1 using ATP as substrate incubated for 1 hr and measured by Kinase-Glo assay. To be noted: read-out: IC50. (In general: In Kinase-Glo more light means more ATP remaining.)
The nature of data set [2]: Stability of compound in rat microsomes assessed as half-life. The format is ADME, Microsome.
Data set [3] can be described thus: Permeability of compound by PAMPA assay. The format is ADME. To be noted: for Papp: read-out: permeability. (In general: In PAMPA a lipid-coated filter parts donor from acceptor wells.)
The nature of data set [4]: Kinetic aqueous solubility of the compound. The note with it: buffer; read-out: Kinetic_solubility. The format is physicochemical.

Each structure is given as a SMILES string. In brackets after ≈: the same amount, converted by molar mass.

Turning to `CC1=C(C(=O)Nc2cc(C(=O)O)ccn2)C(c2ccc(-n3ccnc3)cc2Cl)N=C(Nc2nc3ccc(F)cc3o2)N1` (stereo not given), the IC50 in data set [1] turned out to be 0.97 µM. Besides, the half-life in data set [2] was more than 30 min. For the same compound, in data set [3], the Papp is less than 1 ×10⁻⁶ cm/s. Moreover, in data set [4], the solubility kinetic is more than 87 µg/mL.
Turning to `CC1=C(C(=O)NCc2ccccc2CO)C(c2ccccc2Cl)N=C(Nc2nc3ccccc3o2)N1` (stereo not given), the IC50 in data set [1] is 15.3 µM. The half-life in data set [2] is 5.09 min. Also, in data set [3], the permeability is 1362.3 10^-6 cm/s. Besides, the solubility kinetic in data set [4] was less than 1 µg/mL.
For the compound `CC1=C(C(=O)NCCN(C)C)C(c2ccccc2Cl)N=C(Nc2nc3ccccc3o2)N1` (stereo not given), in data set [1], the IC50 is 15.3 µM. The half-life in data set [2] was more than 30 min. Further, in data set [3], the Papp was more than 1230 ×10⁻⁶ cm/s. Further, the solubility kinetic in data set [4] was more than 67 µg/mL.
With `CC1=C(C(=O)NCc2cccnc2)C(c2ccccc2Cl)N=C(Nc2nc3ccccc3o2)N1` (stereo not given), in data set [1], the IC50 amounted to 19.3 µM. For the same compound, in data set [2], the half-life was found to be 1.58 min. For the same compound, in data set [3], the permeability is 1248.8 10^-6 cm/s. In data set [4], the solubility kinetic is less than 1 µg/mL.
For the compound `CC1=C(C(=O)Nc2ccnc(C(=O)O)c2)C(c2ccccc2Cl)N=C(Nc2nc3ccccc3o2)N1` (stereo not given), the IC50 in data set [1] came out at 3.06 µM. The half-life in data set [2] is more than 30 min. Also, in data set [3], the Papp was less than 1 ×10⁻⁶ cm/s. Besides, the solubility kinetic in data set [4] is more than 74 µg/mL.
Regarding `CC1=C(C(=O)Nc2cc(C(=O)O)ccn2)C(c2ccc(N3CCCC3)cc2Cl)N=C(Nc2nc3ccc(F)cc3o2)N1` (stereo not given), the IC50 in data set [1] worked out at 10.9 µM. Besides, the half-life in data set [2] was more than 30 min. Besides, the Papp in data set [3] is less than 1 ×10⁻⁶ cm/s. Moreover, the solubility kinetic in data set [4] was more than 87 µg/mL.
For the compound `CC1=C(C(=O)Nc2nncs2)C(c2nn(C)cc2Br)N=C(Nc2nc3ccccc3o2)N1` (stereo not given), the IC50 in data set [1] was determined as 19.3 µM. Moreover, in data set [2], the half-life was more than 30 min. The permeability in data set [3] is recorded as 1044 10^-6 cm/s. Further, the solubility kinetic in data set [4] is 6.4 µg/mL (≈ 12.4 µM).
For the compound `CC1=C(C(=O)Nc2ccc(N3CCNCC3)cc2)C(c2ccccc2Cl)N=C(Nc2nc3ccccc3o2)N1` (stereo not given), the IC50 in data set [1] came out at 48.5 µM. Moreover, the half-life in data set [2] is 8.63 min. The Papp in data set [3] turned out to be 894 ×10⁻⁶ cm/s. Further, in data set [4], the solubility kinetic is 2.42 µg/mL (≈ 4.46 µM).
For `COc1ccc([C@H]2N=C(Nc3nc4cccc(N)c4o3)NC(C)=C2C(=O)Nc2cc(C(=O)O)ccn2)c(Cl)c1`, the IC50 in data set [1] was determined as 34.4 µM. In data set [2], the half-life was more than 30 min. In data set [3], the Papp is less than 1 ×10⁻⁶ cm/s. Further, in data set [4], the solubility kinetic is more than 81 µg/mL.
As for `CN(C)CCNC(=O)C1CC(=O)C2=C(C1)NC(Nc1nc3ccccc3o1)=NC2c1ccccc1Cl` (stereo not given), the IC50 in data set [1] is 12.2 µM. In addition, in data set [2], the half-life is more than 30 min. The Papp in data set [3] was less than 9.8 ×10⁻⁶ cm/s. The solubility kinetic in data set [4] worked out at 61.8 µg/mL (≈ 122 µM).
`O=C1CC(C(=O)NCCO)CC2=C1C(c1ccccc1Cl)N=C(Nc1nc3ccccc3o1)N2` (stereo not given): the IC50 in data set [1] is 5.44 µM. In addition, in data set [2], the half-life is more than 30 min. Besides, the Papp in data set [3] was less than 2 ×10⁻⁶ cm/s. In data set [4], the solubility kinetic is 29 µg/mL (≈ 60.4 µM).
On the same counts, the results for `CC1=C(C(=O)Nc2nnc(-c3cccnc3)s2)C(c2ccccc2Cl)N=C(Nc2nc3ccc(F)cc3o2)N1` (stereo not given) are 38.5 µM, more than 30 min, less than 9.9 ×10⁻⁶ cm/s and less than 1 µg/mL.
On the same counts, the results for `CC1=C(C(=O)Nc2ccc(C(N)=O)cc2)C(c2ccccc2Cl)N=C(Nc2nc3ccccc3o2)N1` (stereo not given) are 6.85 µM, more than 30 min, less than 6.3 ×10⁻⁶ cm/s and less than 1 µg/mL.
On the same counts, the results for `CC1=C(C(=O)Nc2cc(C(=O)O)ccn2)C(c2ccc(C)cc2Cl)N=C(Nc2nc3cnccc3o2)N1` (stereo not given) are 6.85 µM, more than 30 min, less than 1 ×10⁻⁶ cm/s and more than 51 µg/mL.
In the case of `CC1=C(C(=O)Nc2cc(C(=O)O)ccn2)C(c2ccc(-n3cccn3)cc2Cl)N=C(Nc2nc3ccc(F)cc3o2)N1` (stereo not given), the IC50 in data set [1] was 3.43 µM. In data set [2], the half-life was more than 30 min. The Papp in data set [3] is less than 1 ×10⁻⁶ cm/s. Also, the solubility kinetic in data set [4] is more than 87 µg/mL.
